Paper PMC10763615, “Identification and engineering of potent cyclic peptides with selective or promiscuous binding through biochemical profiling and bioinformatic data analysis” (RSC Chemical Biology, 2023)
Read-outs that look alike come from different tables or passages of the source. Positions of bridges follow the written chain, without caps; N, C: chain ends. Residues, ends and D or L forms follow the SMILES beside them.

Tests used:
Assay type in all cases: binding
FGF-R3C ECD = biological target: T1, FGF-R3C ECD (Homo sapiens, UniProt P22607); experiment: biochemical; set-up: DNA constructs for the extracellular domain (ECD) of human FGF-; HPC4 (C); made in house; host or cells: HEK 293-6E
T1 sequence (P22607 23-375 limits assumed): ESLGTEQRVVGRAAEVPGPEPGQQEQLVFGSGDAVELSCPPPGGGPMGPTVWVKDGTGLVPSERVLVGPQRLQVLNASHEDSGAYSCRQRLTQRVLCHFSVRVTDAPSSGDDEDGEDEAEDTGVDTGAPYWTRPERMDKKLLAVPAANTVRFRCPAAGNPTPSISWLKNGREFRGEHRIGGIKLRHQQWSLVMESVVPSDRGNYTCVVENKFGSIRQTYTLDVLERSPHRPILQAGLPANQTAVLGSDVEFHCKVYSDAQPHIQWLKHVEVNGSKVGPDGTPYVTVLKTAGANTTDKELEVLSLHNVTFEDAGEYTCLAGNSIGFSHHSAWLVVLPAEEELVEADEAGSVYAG
Method in brief: (§1)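 BLI, streptavidin sensors loaded with biotinylated receptor ECD. Single-point: ~1 μM crude peptide, PBS pH7.4/0.05% Tween-20/0.01% BSA; association then dissociation in buffer. KD corrected for UPLC-CAD-determined concentration.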

FGF-R1C ECD = biological target: T2, FGF-R1C ECD (Homo sapiens, UniProt P11362); experiment: biochemical; set-up: DNA constructs for the extracellular domain (ECD) of human FGF-; HPC4 (C); made in house; host or cells: HEK 293-6E
T2 sequence (P11362 22-376 limits assumed): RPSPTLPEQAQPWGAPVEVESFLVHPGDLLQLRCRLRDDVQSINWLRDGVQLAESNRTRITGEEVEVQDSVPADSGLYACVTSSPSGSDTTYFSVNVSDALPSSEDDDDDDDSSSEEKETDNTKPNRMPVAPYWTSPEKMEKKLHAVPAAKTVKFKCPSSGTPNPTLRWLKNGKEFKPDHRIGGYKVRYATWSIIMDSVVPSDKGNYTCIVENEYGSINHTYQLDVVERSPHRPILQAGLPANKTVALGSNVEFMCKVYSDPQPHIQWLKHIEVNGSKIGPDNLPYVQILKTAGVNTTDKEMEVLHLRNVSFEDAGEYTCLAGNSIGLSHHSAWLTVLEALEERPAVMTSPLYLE
Method in brief: as §1

FGF-R4 ECD = biological target: T3, FGF-R4 ECD (Homo sapiens, UniProt P22455); experiment: single concentration BLI of crude peptides
T3 construct: DNA constructs for the extracellular domain (ECD) of human FGF-; HPC4 (C); made in house; host or cells: HEK 293-6E
T3 sequence (P22455 22-369 limits assumed): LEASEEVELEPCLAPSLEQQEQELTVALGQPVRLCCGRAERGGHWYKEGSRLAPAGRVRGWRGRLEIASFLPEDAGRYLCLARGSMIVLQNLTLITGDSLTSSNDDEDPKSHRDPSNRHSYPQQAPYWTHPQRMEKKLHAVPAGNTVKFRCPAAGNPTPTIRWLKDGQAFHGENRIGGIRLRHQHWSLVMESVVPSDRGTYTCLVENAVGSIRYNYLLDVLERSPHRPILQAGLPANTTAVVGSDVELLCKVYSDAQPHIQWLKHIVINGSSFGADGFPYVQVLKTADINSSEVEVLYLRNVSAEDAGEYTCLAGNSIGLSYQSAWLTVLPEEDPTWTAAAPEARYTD
Method in brief: as §1

[1] = crude T18 selection 1 (1:1:1) peptides, single concentration BLI (Table S4), read-out: KD (4)
[2] = crude NNK peptides, single concentration BLI (Table S3), read-out: KD (4)

Compound | Kd (FGF-R3C ECD) [µM] | Kd (FGF-R1C ECD) [µM] | Kd (FGF-R4 ECD; [1]) [µM] | Kd (FGF-R4 ECD; [2]) [µM] | Kd (FGF-R4 ECD) [µM]
CC[C@H](C)[C@@H]1NC(=O)[C@H](CCC(=O)O)NC(=O)[C@H](Cc2ccc(O)cc2)NC(=O)[C@H](CCC(=O)O)NC(=O)[C@H](CCCCN)NC(=O)[C@@H](NC(=O)[C@H](CCSC)NC(C)=O)CSSC[C@@H](C(=O)NCC(=O)N[C@@H](CO)C(=O)NCC(=O)N[C@@H](CO)C(=O)N[C@@H](CC(=O)O)C(=O)N[C@@H](Cc2ccc(O)cc2)C(=O)N[C@@H](CCCCN)C(=O)N[C@@H](CC(=O)O)C(=O)N[C@@H](CC(=O)O)C(=O)N[C@@H](CC(=O)O)C(=O)N[C@@H](CC(=O)O)C(=O)N[C@@H](CCCCN)C(N)=O)NC(=O)[C@H](Cc2ccc(O)cc2)NC(=O)[C@H](CCC(N)=O)NC(=O)[C@H](CC(C)C)NC(=O)[C@H](CCCCN)NC(=O)[C@H](Cc2ccc(O)cc2)NC(=O)[C@H](Cc2c[nH]c3ccccc23)NC(=O)[C@H](CC(C)C)NC1=O (Ac-MCKEYEILWYKLQYCGSGSDYKDDDDK-NH2; disulfide 2-15) | > 10 | > 10 | 0.017 |  | 
CSCC[C@H](NC(C)=O)C(=O)N[C@@H](CCSC)C(=O)N[C@@H](CO)C(=O)N[C@@H](Cc1c[nH]cn1)C(=O)N[C@H]1CSSC[C@@H](C(=O)NCC(=O)N[C@@H](CO)C(=O)NCC(=O)N[C@@H](CO)C(=O)N[C@@H](CC(=O)O)C(=O)N[C@@H](Cc2ccc(O)cc2)C(=O)N[C@@H](CCCCN)C(=O)N[C@@H](CC(=O)O)C(=O)N[C@@H](CC(=O)O)C(=O)N[C@@H](CC(=O)O)C(=O)N[C@@H](CC(=O)O)C(=O)N[C@@H](CCCCN)C(N)=O)NC(=O)[C@H](CC(C)C)NC(=O)[C@H](CC(C)C)NC(=O)[C@H](C(C)C)NC(=O)[C@H](CCCCN)NC(=O)[C@H](Cc2ccccc2)NC(=O)[C@H](CC(C)C)NC(=O)[C@H](Cc2c[nH]c3ccccc23)NC1=O (Ac-MMSHCWLFKVLLCGSGSDYKDDDDK-NH2; disulfide 5-13) | > 10 | > 10 |  | 0.239 | 
CC[C@H](C)[C@@H]1NC(=O)[C@@H](NC(=O)[C@H](CCSC)NC(C)=O)CSSC[C@@H](C(=O)NCC(=O)N[C@@H](CO)C(=O)NCC(=O)N[C@@H](CO)C(=O)N[C@@H](CC(=O)O)C(=O)N[C@@H](Cc2ccc(O)cc2)C(=O)N[C@@H](CCCCN)C(=O)N[C@@H](CC(=O)O)C(=O)N[C@@H](CC(=O)O)C(=O)N[C@@H](CC(=O)O)C(=O)N[C@@H](CC(=O)O)C(=O)N[C@@H](CCCCN)C(N)=O)NC(=O)[C@H](CO)NC(=O)[C@H](CO)NC(=O)[C@H](CCCNC(=N)N)NC(=O)[C@H](Cc2c[nH]c3ccccc23)NC(=O)[C@H](CC(C)C)NC(=O)[C@H](CC(C)C)NC(=O)[C@H](Cc2ccccc2)NC(=O)[C@H]([C@@H](C)O)NC(=O)[C@H](CCCCN)NC1=O (Ac-MCIKTFLLWRSSCGSGSDYKDDDDK-NH2; disulfide 2-13) | > 10 | > 10 |  | > 10 | 
CC[C@H](C)[C@@H]1NC(=O)[C@H](Cc2ccc(O)cc2)NC(=O)[C@H](CCCCN)NC(=O)[C@H](C(C)C)NC(=O)[C@@H](NC(=O)[C@H](CCSC)NC(C)=O)CSSC[C@@H](C(=O)NCC(=O)N[C@@H](CO)C(=O)NCC(=O)N[C@@H](CO)C(=O)N[C@@H](CC(=O)O)C(=O)N[C@@H](Cc2ccc(O)cc2)C(=O)N[C@@H](CCCCN)C(=O)N[C@@H](CC(=O)O)C(=O)N[C@@H](CC(=O)O)C(=O)N[C@@H](CC(=O)O)C(=O)N[C@@H](CC(=O)O)C(=O)N[C@@H](CCCCN)C(N)=O)NC(=O)[C@H](Cc2c[nH]cn2)NC(=O)[C@H](Cc2ccccc2)NC(=O)[C@H](C(C)C)NC(=O)[C@H](CO)NC(=O)[C@H](Cc2c[nH]c3ccccc23)NC(=O)[C@H](Cc2ccc(O)cc2)NC(=O)[C@H](CCCCN)NC1=O (Ac-MCVKYIKYWSVFHCGSGSDYKDDDDK-NH2; disulfide 2-14) | > 10 | > 10 | 0.017 |  | 
CC[C@H](C)[C@@H]1NC(=O)[C@@H](NC(=O)[C@H](CCSC)NC(C)=O)CSSC[C@@H](C(=O)NCC(=O)N[C@@H](CO)C(=O)NCC(=O)N[C@@H](CO)C(=O)N[C@@H](CC(=O)O)C(=O)N[C@@H](Cc2ccc(O)cc2)C(=O)N[C@@H](CCCCN)C(=O)N[C@@H](CC(=O)O)C(=O)N[C@@H](CC(=O)O)C(=O)N[C@@H](CC(=O)O)C(=O)N[C@@H](CC(=O)O)C(=O)N[C@@H](CCCCN)C(N)=O)NC(=O)[C@@H]2CCCN2C(=O)[C@H](CCCNC(=N)N)NC(=O)[C@H](Cc2c[nH]c3ccccc23)NC(=O)[C@H](CCC(=O)O)NC(=O)[C@H](CCC(=O)O)NC(=O)[C@H](Cc2c[nH]c3ccccc23)NC(=O)[C@H](CCCCN)NC(=O)[C@H](CC(N)=O)NC(=O)[C@H](CCCCN)NC(=O)[C@H](CCCNC(=N)N)NC(=O)[C@H]([C@@H](C)O)NC1=O (Ac-MCITRKNKWEEWRPCGSGSDYKDDDDK-NH2; disulfide 2-15) | > 10 | > 10 | > 10 |  | 
CSCC[C@H](NC(C)=O)C(=O)N[C@H]1CSSC[C@@H](C(=O)NCC(=O)N[C@@H](CO)C(=O)NCC(=O)N[C@@H](CO)C(=O)N[C@@H](CC(=O)O)C(=O)N[C@@H](Cc2ccc(O)cc2)C(=O)N[C@@H](CCCCN)C(=O)N[C@@H](CC(=O)O)C(=O)N[C@@H](CC(=O)O)C(=O)N[C@@H](CC(=O)O)C(=O)N[C@@H](CC(=O)O)C(=O)N[C@@H](CCCCN)C(N)=O)NC(=O)[C@H](CCC(=O)O)NC(=O)[C@H](CCCNC(=N)N)NC(=O)[C@H](CCCNC(=N)N)NC(=O)[C@H](Cc2c[nH]cn2)NC(=O)[C@H](Cc2ccccc2)NC(=O)[C@H](CCC(N)=O)NC(=O)[C@H](CC(C)C)NC(=O)[C@H](Cc2ccc(O)cc2)NC(=O)[C@H](Cc2ccc(O)cc2)NC(=O)[C@H](Cc2c[nH]c3ccccc23)NC(=O)[C@H](CC(C)C)NC1=O (Ac-MCLWYYLQFHRRECGSGSDYKDDDDK-NH2; disulfide 2-14) | > 10 | 0.021 | 0.005 |  | 
CC[C@H](C)[C@@H]1NC(=O)[C@H](CC(C)C)NC(=O)[C@H](CCCCN)NC(=O)[C@H](CO)NC(=O)[C@H](Cc2c[nH]c3ccccc23)NC(=O)[C@@H](NC(=O)[C@H](CCSC)NC(C)=O)CSSC[C@@H](C(=O)NCC(=O)N[C@@H](CO)C(=O)NCC(=O)N[C@@H](CO)C(=O)N[C@@H](CC(=O)O)C(=O)N[C@@H](Cc2ccc(O)cc2)C(=O)N[C@@H](CCCCN)C(=O)N[C@@H](CC(=O)O)C(=O)N[C@@H](CC(=O)O)C(=O)N[C@@H](CC(=O)O)C(=O)N[C@@H](CC(=O)O)C(=O)N[C@@H](CCCCN)C(N)=O)NC(=O)[C@H](CCC(N)=O)NC(=O)[C@H](CO)NC(=O)[C@H](CC(C)C)NC(=O)[C@H](Cc2ccc(O)cc2)NC(=O)[C@H](Cc2ccc(O)cc2)NC(=O)[C@H](CCCCN)NC(=O)[C@H]([C@@H](C)CC)NC1=O (Ac-MCWSKLIIKYYLSQCGSGSDYKDDDDK-NH2; disulfide 2-15) | > 10 | > 10 |  |  | 0.016
CSCC[C@H](NC(C)=O)C(=O)N[C@H]1CSSC[C@@H](C(=O)NCC(=O)N[C@@H](CO)C(=O)NCC(=O)N[C@@H](CO)C(=O)N[C@@H](CC(=O)O)C(=O)N[C@@H](Cc2ccc(O)cc2)C(=O)N[C@@H](CCCCN)C(=O)N[C@@H](CC(=O)O)C(=O)N[C@@H](CC(=O)O)C(=O)N[C@@H](CC(=O)O)C(=O)N[C@@H](CC(=O)O)C(=O)N[C@@H](CCCCN)C(N)=O)NC(=O)[C@@H]2CCCN2C(=O)[C@H](Cc2ccc(O)cc2)NC(=O)[C@H](Cc2c[nH]c3ccccc23)NC(=O)[C@H](Cc2ccc(O)cc2)NC(=O)[C@H](CC(N)=O)NC(=O)[C@H](CO)NC(=O)[C@H](Cc2c[nH]c3ccccc23)NC(=O)[C@H](CCCNC(=N)N)NC(=O)[C@H](CO)NC(=O)[C@H](CCCNC(=N)N)NC(=O)[C@H](CCC(N)=O)NC(=O)[C@H](CCC(=O)O)NC1=O (Ac-MCEQRSRWSNYWYPCGSGSDYKDDDDK-NH2; disulfide 2-15) | > 10 | > 10 | > 10 |  | 
